# Results from paper PMC10951066, “The self-reactive FVIII T cell repertoire in healthy individuals relies on a short set of epitopes and public clonotypes” (Frontiers in Immunology, 2024).
# Legend:
# HLA-DRB1*0701 = HLA-DRB1*0701 (Homo sapiens, UniProt P01903+P01911, A100R/A102G/A103Q/D57E/D86V/E43K/F76Y/K127E/L162R/M171V/P40G/Q125H/Q99D/R33Q/R42Y/R54Q/S133A/S66F/T210M/V115G/Y107V/Y59L/Y89S); experiment: Peptide-MHCII competition binding assay; settings: competition ELISA, pH 5.9, peptide 90.000nM – 0.9nM, HLA-DRB1 30 nM, biotinylated peptide 15nM, duplicate wells; ratios below 10 = good binding; reference peptide PVDLHAFLSQAVFS
# Experimental: (§1) Quantitative peptide-MHCII competition binding assays were carried out to determine binding avidities of the 18 20-mer FVIII peptides to 6 HLA-DRB1. Data are presented as ratio between reference peptide IC50/FVIII-peptide IC50 tested. Briefly, non-biotinylated FVIII peptides have been diluted at a concentration of 20 mM in DMSO. 10-µl aliquots of serially diluted (90.000nM – 0.9nM in n-Octyl b-D-Glucopyranoside, 2.5 mg/ml in 1x phosphate buffer, pH 5.9) of non-biotinylated FVIII peptides, were added to duplicate wells of 96-well polypropylene plates. Serially diluted non-FVIII reference peptides known to bind to the specific HLA-DRB1 were added to separate wells as positive controls. Next, the biotinylated peptide at a concentration of 2mM was use to prepare 1000-fold pre-dilution to reach a final concentration of 15nM. The HLA-DRB1 proteins were diluted to 30 nM in n-Octyl β-D-Glucopyranoside, 2.5 mg/ml in 1x phosphate buffer, pH 5.9. […] SA-HRP (diluted 5000x in 1xPBS 0.1% Tween20) was added to each well. The plates were covered and incubated at room temperature for 60 min […] and washed. TMB (100 μl/well) was then added, and the plates were incubated at room temperature for 15-30 min. ELISA stopping solution (0.5M H2SO4) was added and then read on a FLUOstar OPTIMA fluorometer. Sigmoidal binding curves were simulated and IC50 values calculated for the FVIII peptides, based on their competition with the reference peptides for each HLA-DRB1. Data were reported as the ratio between the values of the tested peptide and of the reference peptide. Ratios below 10 correspond to good biding affinity.
# HLA-DRB1*1101 = HLA-DRB1*1101 (Homo sapiens, UniProt P01903+P01911, A100R/A169T/A87E/I96F/K41T/L162R/M171V/P40S/Q125H/Q178H/Q39Y/Q99D/R42S/S66Y/T262R/V115G/W38E); experiment: Peptide-MHCII competition binding assay; settings: competition ELISA, pH 5.9, peptide 90.000nM – 0.9nM, HLA-DRB1 30 nM, biotinylated peptide 15nM, duplicate wells; ratios below 10 = good binding; reference peptide […]
# Experimental: as §1
# HLA-DRB1*0401 = HLA-DRB1*0401 (Homo sapiens, UniProt P01903+P01911, A100K/A169T/F76Y/I96L/K127E/L162R/M171V/N62H/P40V/Q125Y/R42H/S133A/S149N/S66Y/V115G/V209L/W38E); experiment: Peptide-MHCII competition binding assay; settings: competition ELISA, pH 5.9, peptide 90.000nM – 0.9nM, HLA-DRB1 30 nM, biotinylated peptide 15nM, duplicate wells; ratios below 10 = good binding; reference peptide […]
# Experimental: as §1
# HLA-DRB1*0101 = HLA-DRB1*0101 (Homo sapiens, UniProt P01903+P01911, A100R/D57E/F55L/F60I/F76Y/I96L/L162R/M171V/P40L/Q125E/R42F/V115G/Y59C); experiment: Peptide-MHCII competition binding assay; settings: competition ELISA, pH 5.9, peptide 90.000nM – 0.9nM, HLA-DRB1 30 nM, biotinylated peptide 15nM, duplicate wells; ratios below 10 = good binding; reference peptide […]
# Experimental: as §1
# [1] = tested on: CD4 T cells from healthy donors; experiment: Large-scale CD4 T cell epitope mapping by IFN-γ ELISPOT (16 donors); type: cell-based, human
# Description: PBMCs were purified from the whole blood of anonymous healthy donors, who gave informed consent (Etablissement Français du Sang, Rungis, France), using Ficoll-Paque®. Monocyte-derived dendritic cells (DCs) were produced from cells isolated using Percoll gradient by 5 days of culture in AIM-V medium (Invitrogen, Villebon-sur-Yvette, France) supplemented with 1,000 U/ml recombinant human (rh) IL-4 and rhGM-CSF (both from R&D Systems, Lille, France). Mature DCs were produced by two supplementary days of culture in the presence of LPS (1 µg/ml) and R848 (10µg/ml). CD4 T cells were isolated from autologous PBMCs by positive selection using magnetic labeling with anti-CD4 mAbs conjugated to magnetic microbeads followed by magnetic cell sorting, as recommended by the manufacturer (Miltenyi Biotec, Bergisch Gladbach, Germany). Immature DCs were loaded overnight at 37 °C with either 0.2 µM of rFVIII, 0.2 µM of ovalbumin, or 0.25 µM of KLH in 96-well U-bottom plates, while mature DCs were used for FVIII peptides (10 ug/ml). CD4 T cell lines were generated in vitro in IMDM (Invitrogen) supplemented with 10% human serum, 0.24 mM glutamine, 0.55 mM asparagine, 1.5 mM arginine (all amino acids from Sigma-Aldrich), 50 U/mL penicillin/50 μg/mL of streptomycin (Invitrogen), 20 IU/mL human IL-2, and 17 IU/ml human IL-7 (premium-grade; Miltenyi Biotec) by three once-per-week rounds of stimulation of CD4 T cells (200,000 per well) with autologous DCs (20,000 per well). 10,000 lymphocytes were collected at day 19 from each T cell line (expanded T cells contained in one well) and their specificity was assessed by using IFN-g ELISPOT.
# The T cell lines and APCs were plated at equal number for both stimulated and unstimulated control conditions. […] The spot number was determined by using the ELISPOT Reader System (Autoimmun Diagnostika, Ebinger, Germany). HLA restriction was assessed using monoclonal antibodies (10 μg/ml) specific to HLA-DP (B7/21), HLA-DQ (SPVL3), or HLA-DR (L243).
# Based on the T cell epitope prediction software NetMHCpan4.0 ([23]), we selected 63 20-mer peptides that are predicted for their ability to bind promiscuously, with a percentile score below 10%, at least four HLA class II molecules from a selection of 15 preponderant HLA-DR alleles in our panel (as shown in ST1). […] A total of 16 healthy donors with unrelated HLA typing (ST2) were used as sources of T cells to identify FVIII-specific CD4 T cell epitopes. Specific T cell lines were generated by in vitro T cell culture using FVIII and KLH. The peptide specificity of the T cell lines raised against FVIII was assessed by two independent IFN-γ ELISPOT using peptide pools and individual peptides. […] Furthermore, four independent healthy donors were used as sources of T cells to characterize the HLA restriction and to assess the reactivity of T cell lines generated with the 18 peptides toward rFVIII. T cell lines were amplified in vitro for 28 days through stimulation with the pool of 18 peptides and then tested through IFN-γ ELISPOT.
sequence,measurement,setting,value
"YDTVVITLKNMASHPVSLHA [P100-119, 20-mer FVIII peptide, A1 domain]",Ratio IC50 DRB1*0701,HLA-DRB1*0701,3
same,Ratio IC50 DRB1*1101,HLA-DRB1*1101,2
same,Ratio IC50 DRB1*0401,HLA-DRB1*0401,17
same,Ratio IC50 DRB1*0101,HLA-DRB1*0101,226
same,nb positive T cell lines,[1]; across all 16 donors,44
same,cumulative donor coverage (%),[1]; cumulative over peptides ranked by donor coverage,81%
same,Donor coverage ( %),[1]; of 16 donors,69%
same,responding donors,"[1]; of 16 healthy donors, individual peptide 10 µg/ml",11
same,response intensity ( %),[1]; percentage of 872 FVIII-specific T cell lines,"5,05%"
